Consider two molecules from patent US9834581B2, “Cell penetrating peptides for intracellular delivery of molecules” (AADIGEN, LLC, priority 2012, dated 2017).

The test system of one assay is Peptide (C4). The assay is described as follows: Fluorescence titration of VEPEP-4 binding to peptide cargo. The protocol: (§1) Fluorescence experiments were performed on a PTI spectrofluorimeter at 25° C. in a NaCl 154 mM buffer. Intrinsic Trp-fluorescence of VEPEP-4 was excited at 290 nm and emission spectrum was recorded between 310 and 400 nm, with a spectral band-pass of 2 and 8 nm for excitation and emission, respectively. FITC-fluorescence of labelled-peptide was excited at 492 nm and emission recorded between 500 and 580 nm. For VEPEP-4/peptide interaction, 0.5 μM of FITC-labelled peptide was titrated by increasing concentrations of VEPEP-4. All measurements were corrected for the dilution and curve fitting were performed by using Grafit software (Erithacus).
(§2) VEPEP-4i (SEQ ID No: 1) and VEPEP-4j (SEQ ID No: 2) peptides form stable complexes with peptides. The binding of cargos to VEPEP-4 was monitored by fluorescence spectroscopy using the both intrinsic Trp group of VEPEP-4 (4 Trp-residues) and extrinsic fluorescently labeled cargoes (using Cy5 or FITC). Curve fitting reveal that VEPEP-4 strongly binds the different cargoes with dissociation constant in the nanomolar range (Table 1 and FIG. 1).

The test system of assay [1] is Hela. The assay can be described thus: cells. The protocol: Cells were returned to the incubator for 24 hrs.
Effect of VEPEP-4 mediated delivery of doxorubicin has been investigated on cancer cell viability.

A further assay concerns HIV-1LAI. Type of assay: cell-based. The conditions noted are these: 1LAI. The protocol: (§3) Adherent HS68 fibroblasts, HeLa, PC3, CEM-SS, U20S, MCF-7, and HEK2 cell lines (from American Type Culture Collection (ATCC)), as well as MEF and PBMC, were cultured in Dulbecco's Modified Eagle's Medium supplemented with 2 mM glutamine, 1% antibiotics (streptomycin 10,000 μg/ml, penicillin, 10,000 IU/ml) and 10% (w/v) foetal calf serum (FCS), at 37° C. in a humidified atmosphere containing 5% CO2. Stock solutions of VEPEP-4/peptide particles were prepared by complexing 1 μM peptide with VEPEP-4 peptides at a molar ratio of 1/20 for 30 min at 37° C. Lower concentrations of VEPEP-4-carrier/peptide (from 500 nM to 1 μM) were obtained by serial dilution of the stock complexes in PBS, in order to preserve the same VEPEP-4-carrier/peptide ratio. 150,000 cells seeded in a 35 mm dish the day prior transfection, were grown to 60% confluence and overlaid with 200 μl of preformed complexes, incubated for 3-5 min, then 400 μl of DMEM were added. After 30 min. incubation at 37° C., 1 ml of fresh DMEM containing 16% foetal calf serum (FCS) was added in order to reach a final FCS concentration of 10%, without removing the overlay of VEPEP-4/peptide complexes. Cells were returned to the incubator for 24 hrs. For CDK2 derived peptides cell proliferation was monitored after 24 and 48 hrs. For peptide-targeting integrase, HIV proliferation was analyzed on activated PBMC cells after 3 and 5 days. Data reported are an average of 3 or 4 distinct experiments.
The anti-HIV activities of the peptides (PC4D, PC4S, PC6D, PC6S) and VEPEP-4/peptides complexes were assayed according to previously described method (Roisin et al, 2004). Phytohemagglutinin-P (PHA-P)-activated peripheral blood mononuclear cells (PBMC) treated by increasing concentrations of peptide (from 100 to 0.1 nM), one hour later, were infected with hundred 50% tissue culture infectious doses (TCID50) per 100,000 cells of the HIV-1-LAI or different resistant strains (Barre-Sinoussi et al, 1983). Viruses were amplified in vitro on PHA-P-activated PBMC. Viral stock was titrated using PHA-P-activated PBMC, and 50% TCID50 were calculated using Kärber's formula (Karber 1931). Samples were maintained throughout the culture, and cell supernatants were collected at day 7 post-infection and stored at −20 C. Viral replication was measured by quantifying RT activity in cell culture supernatants. In parallel, cytotoxicity of the compounds was evaluated in uninfected PHA-P-activated PBMC by colorimetric 3-(4-5 dimethylthiazol-2-yl)2,5 diphenyl tetrazolium bromite (MTT) assay on day 7 (Mossmann 1983). Experiments were performed in triplicate and repeated with another blood donor. […]

In the next assay the test system is Cyclic peptide (PC4). The assay is described as follows: Fluorescence titration of VEPEP-4 binding to cyclic peptide cargo. The protocol:
as §1, §2

Assay [2] deals with MCF7. Type of assay: cell-based, Human. The protocol:
as §3
(§4) VEPEP-4 peptides have been used for the delivery of different small fluorescent hydrophobic and charged molecules as well as doxorubicin on different cell lines including primary cell lines and challenging cell lines. VEPEP-4 peptides form stable particles with small aromatic molecules including doxorubicin. Effect of VEPEP-4 mediated delivery of doxorubicin has been investigated on cancer cell viability. […] The impact of carrier peptides to improve cellular uptake of small molecule drugs was estimated by following inhibition of proliferation of cancer cells.

A further assay has as its system MEF. The assay can be described thus: VEPEP-4 mediated delivery of fluorescently labelled peptide (fluorescence microscopy or FACS). The class given is cell-based, Mouse. Particulars: uptake of fluorescently labelled peptide cargo. The protocol:
as §3
(§5) VEPEP-4 peptides have been used for the delivery of different peptides into different cell lines, including primary cell lines, stem cell lines and challenging cell lines. Peptide delivery was monitored using three approaches, fluorescence spectroscopy and monitoring biological responses (anti proliferation and anti viral responses).
(§6) 1—Fluorescently labelled peptide was visualized in the different cell lines using fluorescence microscopy or FACS sorting (Table 3). In most of the cell lines, the uptake of Cy-5 labelled peptides is more than 70% of the cells.

The next assay relates to HEK2. The assay is described as follows: cells. The class given is cell-based. The protocol: as §3, §4
The nature of assay [3]: Fluorescence titration of VEPEP-4 binding to small molecule cargo. The protocol:
as §1
VEPEP-4 peptides also form stable particles with small aromatic molecules including daunomycin, Paclitaxel, doxorubicin, porphyrin and charged molecules including nucleotide, nucleoside and peptide-analogue of nucleic acids or fluorescent dyes. The dissociation constant for small hydrophobic molecule ranges between 0.05 to 2 μM, depending on the nature of the dyes and of the peptides.
Binding of small molecule cargoes has been investigated in detail depending on the nature of the SMH. Several hydrophobic and charges molecules have been use (Daunomycin, Paclitaxel, doxorubicin, porphyrin) and charged molecules (nucleotide, nucleoside and fluorescent dyes).

Assay [4] concerns Hela. The assay is described as follows: VEPEP-4 mediated delivery of fluorescently labelled peptide (fluorescence microscopy or FACS). Type of assay: cell-based, Human. The conditions noted are these: uptake of fluorescently labelled peptide cargo. The protocol: as §3, §5, §6
The subject of a further assay is HS-68. Described as above. The class given is cell-based, Human. The conditions noted are these: HS-68, uptake of fluorescently labelled peptide cargo. The protocol: as §3, §5, §6
A further assay relates to U2OS. Described as above. The class given is cell-based, Human. Particulars: uptake of fluorescently labelled peptide cargo. The protocol: as §3, §5, §6
In another assay the test system is PBMC. Described as above. Type of assay: cell-based, Human. The conditions noted are these: uptake of fluorescently labelled peptide cargo. The protocol:
as §3, §5, §6

For the next assay, the system named is CEM-SS. The description is as above. The class given is cell-based, Human. Particulars: uptake of fluorescently labelled peptide cargo. The protocol: as §3, §5, §6
The subject of assay [5] is MCF7. Described as above. Type of assay: cell-based, Human. The conditions noted are these: MCF7, uptake of fluorescently labelled peptide cargo. The protocol:
as §3, §5, §6

SMILES strings stand for the structures. *1 amine or outer side, *2 acyl side, *3 side chain or, on linkers, in order; H or OH if unused. Where a SMILES comes first, the peptide text is derived from it. [ ]: non-standard residue; d: D form. Cysteamide = C(CS[*:3])N[*:1]; βAla = NCCC(=O)O

Protocol for Hela cells: (§7) Adherent HS68 fibroblasts, HeLa, PC3, CEM-SS, U20S, MCF-7, and HEK2 cell lines (from American Type Culture Collection (ATCC)), as well as MEF and PBMC, were cultured in Dulbecco's Modified Eagle's Medium supplemented with 2 mM glutamine, 1% antibiotics (streptomycin 10,000 μg/ml, penicillin, 10,000 IU/ml) and 10% (w/v) foetal calf serum (FCS), at 37° C. in a humidified atmosphere containing 5% CO2. Stock solutions of VEPEP-4/peptide particles were prepared by complexing 1 μM peptide with VEPEP-4 peptides at a molar ratio of 1/20 for 30 min at 37° C. […] 150,000 cells seeded in a 35 mm dish the day prior transfection, were grown to 60% confluence and overlaid with 200 μl of preformed complexes, incubated for 3-5 min, then 400 μl of DMEM were added. After 30 min. incubation at 37° C., 1 ml of fresh DMEM containing 16% foetal calf serum (FCS) was added in order to reach a final FCS concentration of 10%, without removing the overlay of VEPEP-4/peptide complexes. Cells were returned to the incubator for 24 hrs. For CDK2 derived peptides cell proliferation was monitored after 24 and 48 hrs. […] Data reported are an average of 3 or 4 distinct experiments.
Protocol for MCF7 cells: as §7

For `CSCC[C@H](NC(=O)[C@H](CCCNC(=N)N)NC(=O)[C@@H](NC(=O)[C@H](CCC(N)=O)NC(=O)[C@H](CCCCN)NC(=O)[C@@H](N)CCCCN)C(C)C)C(=O)N[C@@H](C)C(=O)N[C@@H](Cc1c[nH]cn1)C(=O)N[C@@H](CC(C)C)C(=O)N[C@H](C(=O)N[C@@H](CC(C)C)C(=O)N[C@H](C(=O)O)[C@@H](C)O)C(C)C` [C4, KKQVRMAHLVLT] (H-KKQVRMAHLVLT-OH; N-terminus and C-terminus assumed), the half-inhibitory concentration (IC50) in the assay on Hela cells is 50 ± 15 nM; in the assay with MCF7 cells, 60 ± 12 nM. The “concentration sufficient to block proliferation” value in the assay with Hela cells (Hela, C4 delivered by VEPEP-4) was determined as 100 nM; in the assay on MCF7 cells (MCF7, C4 delivered by VEPEP-4) it was 100 nM.

On to `CC(=O)NCCC(=O)N[C@@H](Cc1c[nH]c2ccccc12)C(=O)N[C@@H](Cc1ccccc1)C(=O)N[C@@H](CCCNC(=N)N)C(=O)N[C@@H](CC(C)C)C(=O)N[C@@H](CO)C(=O)N[C@@H](CC(C)C)C(=O)N[C@@H](CCCNC(=N)N)C(=O)N[C@@H](Cc1ccccc1)C(=O)N[C@@H](Cc1c[nH]c2ccccc12)C(=O)N[C@@H](CCCNC(=N)N)C(=O)NCCS` [VEPEP-3j, X1WFRLSLRFWR] (Ac-[βAla]WFRLSLRFWR-Cysteamide), for which the Binding result (with Peptide (C4); with Cyclic peptide (PC4); in assay [3] (cargo Doxorubicin); in assay [3] (cargo FAM-guanosine); in assay [3] (cargo porphyrin)) was “yes” each time. Also, the equilibrium dissociation constant (Kd) was 10 to 20 nM at Peptide (C4); 50 to 100 nM at Cyclic peptide (PC4); 70 nM in [3] (cargo Doxorubicin); 50 nM in [3] (cargo FAM-guanosine); 500 nM in assay [3] (cargo porphyrin). Also, the 50% inhibitory concentration (IC50) came out at 800 nM with Hela [1], 0.17 ± 0.07 nM with HIV-1LAI, 200 nM in the assay on MCF7 [2] and 300 nM in the assay with HEK2. Further, the Efficiency with MEF stood at 70%; with Hela [4] it was 62%; in the assay with HS-68, 80%; in the assay with U2OS, 81%; in the assay on PBMC, 80%; with CEM-SS, 65%. In the assay on MCF7 [5], this molecule yielded an Efficiency of 65%.
